The numbers were not newly measured in patent US6419963B1, “Composition and method for the treatment of diaper rash using natural products” (priority 2001, dated 2002), which cites them from elsewhere.

Series [1] has as its system ethanol-induced ulcers. The conditions noted are these: rats.

Take `[O]=[Zn]` [Zinc oxide]: the solubility in water result is recorded as “almost totally insoluble”.

Turning to `CN/C(=N/CCSCc1nc[nH]c1C)NC#N` [cimetidine], in series [1], the ethanol-induced ulcers result is reported as “not affected”.

On to Zinc glycerolate, for which the solubility in water entry is recorded as “insoluble”.
